Results taken from US8309577B2, “Quinuclidine compounds as α-7 nicotinic acetylcholine receptor ligands” (Bristol-Myers Squibb Company, priority 2008, dated 2012).
pEC50: −log10 of the molar value.

The molecules below were run against T1, α-7 nicotinic acetylcholine receptor channel expressed in HEK 293 cells (Rattus norvegicus, UniProt Q05941) (assay: Ca2+-sensitive fluorescence-based FLIPR assay, α7 nicotinic ACh receptor channel function (agonist)). Conditions: not given.
T1 construct: expressed in transfected cells
Format: cell-based
Protocol: I) α7 Nicotinic Acetycholine Receptor Binding. Membranes were prepared for binding using HEK293 cells stably expressing the rat α7 nicotinic acetycholine receptor (rat α7 nAChR). Cells were homogenized at 4° C. in hypotonic lysis buffer consisting of 10 mM Tris (pH 7.4), 5 mM EDTA and protease inhibitors and centrifuged at 32000×g for 20 minutes. The pellet was washed once in membrane wash buffer consisting of 50 mM Tris (pH 7.4), 1 mM EDTA and protease inhibitors and centrifuged at 32000×g for 20 minutes. This pellet was then resuspended in assay buffer consisting 50 mM KH2PO4 (pH 7.4 at 25° C.), 1 mM EDTA, 0.005% Triton-X 100 and 0.1% (v/v) Sigma Protease Inhibitor Cocktail. Aliquots were then frozen in dry ice/ethanol and kept at −80° C. until the day of the assay. II) A Ca^2+-Sensitive, Fluorescence-Based Assay α-7 for Nicotinic Acetylcholine Receptor Channel Function In Mammalian Cells (“FLIPR”). Summary: Lead compounds are evaluated for agonist activity at […], α3β4, […], and α1β1δ1ε sub-types of nicotinic ACh receptor ion channels expressed in mammalian HEK 293 cells. Agonist potency and efficacy values are determined from kinetic fluorescence Ca^2+ influx measurements made using a 384 well FLIPR (Fluorescence Image Plate Reader). […] In this assay, channel expressing HEK cell lines seeded in 384 well assay plates are loaded with a membrane permeant fluorescent Ca^2+ indicator dye, whose 510 nm green emission signal increases in response to elevation of intracellular Ca^2+ concentration. The basal fluorescence from the cells is monitored in real time, followed by the acute addition of test compounds.
Materials and Methods: Reagents: The acetomethoxy (AM) ester of the Ca^2+ indicator dye Fluo-4 was obtained from InVitrogen, (Carlsbad, Calif.). Acetylcholine and all buffer constituents were purchased from Sigma Chemical Company, St. Louis, Mo. G418 and Minimal Essential Medium were purchased from InVitrogen Life Technologies, Carlsbad, Calif. Fetal bovine serum was purchased from (InVitrogen, Carlsbad, Calif.).
Cell Culture: HEK-293 cells were grown in Minimal Essential Medium containing 10% (v/v) fetal bovine serum at 37° C. in a 5% CO2 incubator. HEK-293 cells stably expressing the ion channels were grown in the same medium with the addition of 500 μg/ml G418.
Ca^2+ flux assays of Ca^2+ channels expressed in HEK-293 cells: HEK-293 cells expressing the ion channels of interest were plated in 384 well, black-walled, clear-bottomed, poly-D-lysine coated plates at a density of ˜20,000 cells/well in 20 μl of Minimal Essential Medium containing 10% (v/v) fetal bovine serum and incubated for 2 days at 29° C. in a 5% CO2 incubator. Prior to assay, cells were loaded with the Fluo-4 AM ester. […] Dye loading was allowed to proceed for 90 minutes at room temperature at which time the dye loading solution was removed and replaced with 40 μl/well of Hanks buffer. Cells loaded with dye were loaded onto a FLIPR384 (Molecular Devices, Sunnyvale, Calif.). Fluo-4 dye was excited using the 488 nm line of an argon laser. Emission was filtered using a 540+/−30 nm bandpass filter. For evaluation of the effects of test compounds using the Ca^2+ flux assay, compounds to be tested were provided in assay ready plates. For nicotinic receptor ion channel expressing cells, the assay was initiated by the addition of 20 μl/well of Hanks buffer containing test compounds. For all assays, data were collected at 1 Hz for 10 seconds (baseline), at which time the compound containing stimulus buffers are added, and further measurements collected at 0.33 Hz for 3 min.
Data Analysis: The statistical robustness of the nicotinic receptor Ca^2+ flux assays is determined from blanks and totals wells. […] The raw fluorescence units data files generated on the FLIPR plate reader are automatically exported and processed by in-house data analysis tools.

T1 sequence (Q05941 23-502): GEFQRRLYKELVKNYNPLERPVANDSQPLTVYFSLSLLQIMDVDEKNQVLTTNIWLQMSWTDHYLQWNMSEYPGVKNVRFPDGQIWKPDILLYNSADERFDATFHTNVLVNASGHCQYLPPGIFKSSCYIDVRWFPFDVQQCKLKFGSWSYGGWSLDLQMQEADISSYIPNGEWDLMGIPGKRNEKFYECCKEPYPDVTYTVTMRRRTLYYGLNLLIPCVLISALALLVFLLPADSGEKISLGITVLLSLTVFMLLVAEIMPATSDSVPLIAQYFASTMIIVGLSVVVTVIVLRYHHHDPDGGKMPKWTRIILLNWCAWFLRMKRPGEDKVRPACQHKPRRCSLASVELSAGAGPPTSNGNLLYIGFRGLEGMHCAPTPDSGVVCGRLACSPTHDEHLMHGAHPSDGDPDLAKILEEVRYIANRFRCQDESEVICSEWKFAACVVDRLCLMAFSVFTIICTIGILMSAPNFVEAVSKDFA

SMILES	pEC50
c1cncc(/N=C2\NCC3(CN4CCC3CC4)O2)c1 (racemic) [Example 18, (E)-N-(1′-Azaspiro[oxazolidine-5,3′-bicyclo[2.2.2]octane]-2-ylidene)pyridin-3-amine]	5.41

Same assay, conditions: FLIPR α7 (EC50, nM), Table 1; HEK 293 cells, agonist Ca2+ flux

SMILES	EC50 [nM]
COc1nccnc1NC1=NCC2(CN3CCC2CC3)O1 (racemic) [Example 120]	875
c1ccc(-c2cnc(NC3=NCC4(CN5CCC4CC5)O3)s2)cc1 (single isomer, unassigned) [Example 4b]	230
Cc1cccc2sc(NC3=NCC4(CN5CCC4CC5)O3)nc12 (single isomer, unassigned) [Example 6a]	4340
c1ccc2[nH]c(NC3=NCC4(CN5CCC4CC5)O3)nc2c1 (single isomer, unassigned) [Example 8a, N-(1H-benzo[d]imidazol-2-yl)-4H-1′-azaspiro[oxazole-5,3′-bicyclo[2.2.2]octan]-2-amine]	120
Clc1ccc2nc(NC3=NCC4(CN5CCC4CC5)O3)sc2c1 (single isomer, unassigned) [Example 9a, N-(6-Chlorobenzo[d]thiazol-2-yl)-4H-1′-azaspiro[oxazole-5,3′-bicyclo[2.2.2]octan]-2-amine]	7310
CCOc1ccc2nc(NC3=NCC4(CN5CCC4CC5)O3)sc2c1 (single isomer, unassigned) [Example 11b, N-(6-Ethoxybenzo[d]thiazol-2-yl)-4H-1′-azaspiro[oxazole-5,3′-bicyclo[2.2.2]octan]-2-amine]	213

Same assay, conditions: FLIPR α7 activity rating (EC50, nM), Table 1; HEK 293 cells, agonist Ca2+ flux

SMILES	EC50 [nM]
c1ccc2sc(NC3=NCC4(CN5CCC4CC5)O3)nc2c1 (racemic) [Example 1, N-(benzo[d]thiazol-2-yl)-4H-1′-azaspiro[oxazole-5,3′-bicyclo[2.2.2]octan]-2-amine]	< 100
COc1ccc2nc(NC3=NCC4(CN5CCC4CC5)O3)sc2n1 (racemic) [Example 2, N-(5-Methoxythiazolo[5,4-b]pyridin-2-yl)-4H-1′-azaspiro[oxazole-5,3′-bicyclo[2.2.2]octan]-2-amine]	100 to 1000
Clc1cccc2sc(NC3=NCC4(CN5CCC4CC5)O3)nc12 (racemic) [Example 7, N-(4-chlorobenzo[d]thiazol-2-yl)-4H-1′-azaspiro[oxazole-5,3′-bicyclo[2.2.2]octan]-2-amine]	100 to 1000
Oc1ccc2nc(NC3=NCC4(CN5CCC4CC5)O3)sc2c1 (racemic) [Example 13, 2-(4H-1′-Azaspiro[oxazole-5,3′-bicyclo[2.2.2]octane]-2-ylamino)benzo[d]thiazol-6-ol]	< 100
C1CCc2sc(NC3=NCC4(CN5CCC4CC5)O3)nc2C1 (racemic) [Example 14, N-(4,5,6,7-Tetrahydrobenzo[d]thiazol-2-yl)-4H-1′-azaspiro[oxazole-5,3′-bicyclo[2.2.2]octan]-2-amine]	100 to 1000
CC(C)c1csc(NC2=NCC3(CN4CCC3CC4)O2)n1 (racemic) [Example 15, N-(4-Isopropylthiazol-2-yl)-4H-1′-azaspiro[oxazole-5,3′-bicyclo[2.2.2]octan]-2-amine]	100 to 1000
c1csc(NC2=NCC3(CN4CCC3CC4)O2)n1 (racemic) [Example 16, N-(Thiazol-2-yl)-4H-1′-azaspiro[oxazole-5,3′-bicyclo[2.2.2]octan]-2-amine]	100 to 1000
COc1ccc(-c2nc(NC3=NCC4(CN5CCC4CC5)O3)sc2C)cc1 (racemic) [Example 17, N-(4-(4-Methoxyphenyl)-5-methylthiazol-2-yl)-4H-1′-azaspiro[oxazole-5,3′-bicyclo[2.2.2]octan]-2-amine]	100 to 1000
c1cncc(/N=C2\NCC3(CN4CCC3CC4)O2)c1 (racemic) [Example 18, (E)-N-(1′-Azaspiro[oxazolidine-5,3′-bicyclo[2.2.2]octane]-2-ylidene)pyridin-3-amine]	1000 to 100000
COc1ccc(-c2csc(NC3=NCC4(CN5CCC4CC5)O3)n2)cc1 (racemic) [Example 20, N-(4-(4-Methoxyphenyl)thiazol-2-yl)-4H-1′-azaspiro[oxazole-5,3′-bicyclo[2.2.2]octan]-2-amine]	100 to 1000
Cc1cc(C)c2c(NC3=NCC4(CN5CCC4CC5)O3)nsc2n1 (racemic) [Example 114]	100 to 1000
c1cnnc(NC2=NCC3(CN4CCC3CC4)O2)c1 (racemic) [Example 115]	1000 to 100000
COc1ccc(NC2=NCC3(CN4CCC3CC4)O2)nn1 (racemic) [Example 116]	1000 to 100000
COc1cncc(NC2=NCC3(CN4CCC3CC4)O2)n1 (racemic) [Example 118]	1000 to 100000
COc1nccnc1NC1=NCC2(CN3CCC2CC3)O1 (racemic) [Example 120]	100 to 1000
CC(C)(C)c1cc(NC2=NCC3(CN4CCC3CC4)O2)ncn1 (racemic) [Example 121]	1000 to 100000
Cc1cc(NC2=NCC3(CN4CCC3CC4)O2)nc(C)n1 (racemic) [Example 123]	1000 to 100000
Cc1ccc(NC2=NCC3(CN4CCC3CC4)O2)nn1 (racemic) [Example 124]	1000 to 100000
c1ccc2sc(NC3=NCC4(CN5CCC4CC5)O3)nc2c1 (single isomer, unassigned) [Example 1a]	1000 to 100000

SMILES	EC50 [nM]
c1ccc2sc(NC3=NCC4(CN5CCC4CC5)O3)nc2c1 (single isomer, unassigned) [Example 1b]	< 100
COc1ccc2nc(NC3=NCC4(CN5CCC4CC5)O3)sc2n1 (single isomer, unassigned) [Example 2a]	1000 to 100000
COc1ccc2nc(NC3=NCC4(CN5CCC4CC5)O3)sc2n1 (single isomer, unassigned) [Example 2b]	100 to 1000
c1ccc(-c2cnc(NC3=NCC4(CN5CCC4CC5)O3)s2)cc1 (single isomer, unassigned) [Example 4a]	1000 to 100000
c1ccc(-c2cnc(NC3=NCC4(CN5CCC4CC5)O3)s2)cc1 (single isomer, unassigned) [Example 4b]	100 to 1000
COc1ccc2nc(NC3=NCC4(CN5CCC4CC5)O3)sc2c1 (single isomer, unassigned) [Example 5a]	1000 to 100000
COc1ccc2nc(NC3=NCC4(CN5CCC4CC5)O3)sc2c1 (single isomer, unassigned) [Example 5b]	< 100
Cc1cccc2sc(NC3=NCC4(CN5CCC4CC5)O3)nc12 (single isomer, unassigned) [Example 6a]	1000 to 100000
Cc1cccc2sc(NC3=NCC4(CN5CCC4CC5)O3)nc12 (single isomer, unassigned) [Example 6b]	< 100
Clc1cccc2sc(NC3=NCC4(CN5CCC4CC5)O3)nc12 (single isomer, unassigned) [Example 7a]	1000 to 100000
Clc1cccc2sc(NC3=NCC4(CN5CCC4CC5)O3)nc12 (single isomer, unassigned) [Example 7b]	< 100
c1ccc2[nH]c(NC3=NCC4(CN5CCC4CC5)O3)nc2c1 (single isomer, unassigned) [Example 8a, N-(1H-benzo[d]imidazol-2-yl)-4H-1′-azaspiro[oxazole-5,3′-bicyclo[2.2.2]octan]-2-amine]	100 to 1000
c1ccc2[nH]c(NC3=NCC4(CN5CCC4CC5)O3)nc2c1 (single isomer, unassigned) [Example 8b, N-(1H-benzo[d]imidazol-2-yl)-4H-1′-azaspiro[oxazole-5,3′-bicyclo[2.2.2]octan]-2-amine]	1000 to 100000
Clc1ccc2nc(NC3=NCC4(CN5CCC4CC5)O3)sc2c1 (single isomer, unassigned) [Example 9a, N-(6-Chlorobenzo[d]thiazol-2-yl)-4H-1′-azaspiro[oxazole-5,3′-bicyclo[2.2.2]octan]-2-amine]	1000 to 100000
Clc1ccc2nc(NC3=NCC4(CN5CCC4CC5)O3)sc2c1 (single isomer, unassigned) [Example 9b, N-(6-Chlorobenzo[d]thiazol-2-yl)-4H-1′-azaspiro[oxazole-5,3′-bicyclo[2.2.2]octan]-2-amine]	< 100
Cn1c(NC2=NCC3(CN4CCC3CC4)O2)nc2ccccc21 (single isomer, unassigned) [Example 10a, N-(1-methyl-1H-benzo[d]imidazol-2-yl)-4H-1′-azaspiro[oxazole-5,3′-bicyclo[2.2.2]octan]-2-amine]	100 to 1000
CCOc1ccc2nc(NC3=NCC4(CN5CCC4CC5)O3)sc2c1 (single isomer, unassigned) [Example 11b, N-(6-Ethoxybenzo[d]thiazol-2-yl)-4H-1′-azaspiro[oxazole-5,3′-bicyclo[2.2.2]octan]-2-amine]	100 to 1000
Cc1ccc2nc(NC3=NCC4(CN5CCC4CC5)O3)sc2c1 (single isomer, unassigned) [Example 12a, N-(6-Methylbenzo[d]thiazol-2-yl)-4H-1′-azaspiro[oxazole-5,3′-bicyclo[2.2.2]octan]-2-amine]	100 to 1000
Cc1ccc2nc(NC3=NCC4(CN5CCC4CC5)O3)sc2c1 (single isomer, unassigned) [Example 12b, N-(6-Methylbenzo[d]thiazol-2-yl)-4H-1′-azaspiro[oxazole-5,3′-bicyclo[2.2.2]octan]-2-amine]	1000 to 100000
